Target: T1, Axl (Homo sapiens, UniProt P30530)
T1 construct: endogenous in cells; host or cells: HeLa cells
T1 sequence (P30530 26-894): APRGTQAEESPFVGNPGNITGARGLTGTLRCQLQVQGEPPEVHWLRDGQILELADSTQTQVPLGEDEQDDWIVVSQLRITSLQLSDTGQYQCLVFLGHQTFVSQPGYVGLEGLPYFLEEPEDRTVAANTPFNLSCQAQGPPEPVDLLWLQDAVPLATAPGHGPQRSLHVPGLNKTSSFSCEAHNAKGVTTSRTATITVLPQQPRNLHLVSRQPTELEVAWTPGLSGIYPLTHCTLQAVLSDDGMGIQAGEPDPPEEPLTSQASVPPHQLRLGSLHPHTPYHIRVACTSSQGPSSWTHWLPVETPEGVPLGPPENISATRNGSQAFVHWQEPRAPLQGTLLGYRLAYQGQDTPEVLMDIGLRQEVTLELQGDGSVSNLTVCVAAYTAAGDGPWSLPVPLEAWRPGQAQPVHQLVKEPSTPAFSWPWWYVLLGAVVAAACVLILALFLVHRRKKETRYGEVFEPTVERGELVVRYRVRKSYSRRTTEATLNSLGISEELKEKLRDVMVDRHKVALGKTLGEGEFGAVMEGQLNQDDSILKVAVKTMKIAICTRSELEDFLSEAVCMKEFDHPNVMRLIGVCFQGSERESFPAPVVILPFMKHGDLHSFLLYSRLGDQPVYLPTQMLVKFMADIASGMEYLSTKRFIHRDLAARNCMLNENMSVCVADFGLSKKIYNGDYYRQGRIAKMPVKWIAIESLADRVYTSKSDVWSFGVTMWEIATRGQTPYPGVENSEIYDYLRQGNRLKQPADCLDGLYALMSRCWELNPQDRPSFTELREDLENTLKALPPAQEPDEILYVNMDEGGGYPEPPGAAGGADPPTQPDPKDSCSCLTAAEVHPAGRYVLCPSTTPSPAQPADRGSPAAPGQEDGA
Assay: Phospho-Akt in-cell Western assay (inhibition of Axl activity)
Assay type: cell-based
Method in brief: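 HeLa cells on poly-L-lysine, starved 24 h in 0.5% FCS DMEM with Axl/Fc 500 ng/mL, pre-treated with compound 1 h at 37° C. Axl stimulated 5 min by anti-Axl/anti-mouse antibody cross-linking. Fixed cells probed with anti-phospho-Akt and HRP secondary, chemiluminescence read.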

[1] = Table 5, Hela cells, Axl antibody cross-linking stimulation, phospho-Akt chemiluminescence
[2] = inhibition of Axl activity, Table 1
[3] = Table 3, Hela cells, Axl antibody cross-linking stimulation, phospho-Akt chemiluminescence
[4] = inhibition of Axl activity, phospho-Akt in-cell Western assay, Table 1

Row | Structure (SMILES) | IC50 [1] | IC50 [4] | further results
1 | Cc1cccc(C(=O)n2nc(Nc3ccc4ncccc4c3)nc2N)c1 [compound 251, 5-amino-1-(3-methylphenyl)carbonyl-3-(6-quinolinyl)amino-1H-1,2,4-triazole] | 1000 to 10000 nM |  | 
2 | Cc1cccc(C(=O)n2nc(Nc3ccc4[nH]ccc4c3)nc2N)c1 [compound 252, 5-amino-3-(1H-indol-5-yl)amino-1-(3-methylphenyl)carbonyl-1H-1,2,4-triazole] | 1000 to 10000 nM |  | 
3 | Cc1cccc(C(=O)n2nc(Nc3ccc4cnn(C)c4c3)nc2N)c1 [compound 254, 5-amino-3-(1H-1-methyl-indazol-6-yl)amino-1-(3-methylphenyl)carbonyl-1H-1,2,4-triazole] | > 20000 nM |  | 
4 | COc1ccc(C(=O)n2nc(Nc3ccc4c(c3)OCCO4)nc2N)cc1C [compound 257, 5-amino-3-(1,4-benzodioxan-6-yl)amino-1-(3-methyl-4-methoxy)phenylcarbonyl-1H-1,2,4-triazole] |  |  | IC50 [2]: 1000 to 10000 nM
5 | Cc1cc(C(=O)n2nc(Nc3ccc4c(c3)OCCO4)nc2N)ccc1OC(C)C [compound 258, 5-amino-3-(1,4-benzodioxan-6-yl)amino-1-(3-methyl-4-iso-propoxy)phenylcarbonyl-1H-1,2,4-triazole] |  |  | IC50 [2]: 1000 to 10000 nM
6 | Cc1cccc(C(=O)n2nc(Nc3ccc4snc(C)c4c3)nc2N)c1 [compound 260, 5-amino-3-(3-methyl-1,2-benzisothiazol-5-yl)amino-1-(3-methylphenyl)carbonyl-1H-1,2,4-triazole] | > 20000 nM |  | 
7 | CC(=O)n1nc(Nc2ccc3c(c2)OCCO3)nc1N [compound 261, 1-Acetyl-5-amino-3-(1,4-benzodioxan-6-yl)amino-1H-1,2,4-triazole] |  |  | IC50 [3]: > 20000 nM
8 | Nc1nc(Nc2ccc(OCCN3CCCC3)c(F)c2)nn1C(=O)c1ccc(N2CCOCC2)cc1 [compound 262, 5-amino-3-[4-[2-(pyrrolidin-1-yl)ethoxy]-3-fluorophenyl]amino-1-[4-(morpholin-4-yl)phenyl]carbonyl-1H-1,2,4-triazole] |  | < 1000 nM | 
9 | CC(C)(C)c1ccc(C(=O)n2nc(Nc3cccc(-c4cnco4)c3)nc2N)cc1 [compound 263, 5-amino-1-(4-(tert-butyl)phenyl)carbonyl-3-[3-(1,3-oxazol-5-yl)phenylamino]-1H-1,2,4-triazole] |  | 1000 to 10000 nM | 
10 | CC(C)(C)Oc1ccc(C(=O)n2nc(Nc3cccc(-c4cnco4)c3)nc2N)cc1 [compound 264, 5-amino-1-(4-(tert-butoxy)phenyl)carbonyl-3-[3-(1,3-oxazol-5-yl)phenylamino]-1H-1,2,4-triazole] |  | 1000 to 10000 nM | 
11 | Nc1nc(Nc2ccc(OCCN3CCOCC3)cc2)nn1C(=O)c1ccc2cc[nH]c2c1 [compound 265, 5-amino-1-(1H-indol-6-yl)carbonyl-3-[4-[2-(morpholin-4-yl)ethoxy]phenylamino]-1H-1,2,4-triazole] |  |  | IC50 [3]: < 1000 nM
12 | CC(C)(C)Oc1ccc(C(=O)n2nc(Nc3ccc(OCCN4CCOCC4)cc3)nc2N)cc1 [compound 267, 5-amino-1-(4-(tert-butoxy)phenyl)carbonyl-3-[4-[2-(morpholin-4-yl)ethoxy]phenylamino]-1H-1,2,4-triazole] |  | < 1000 nM | 
13 | Nc1nc(Nc2ccc(OCCN3CCCC3)cc2)nn1C(=O)c1ccc(-n2ccnc2)cc1 [compound 268, 5-amino-1-(4-(imidazol-1-yl)phenyl)carbonyl-3-[4-[2-(pyrrolidin-1-yl)ethoxy]phenylamino]-1H-1,2,4-triazole] |  | < 1000 nM | 
14 | Nc1nc(Nc2ccc(OCCN3CCCC3)cc2)nn1C(=O)c1ccc(Oc2ccccc2)cc1 [compound 269, 5-amino-1-(4-(phenoxy)phenyl)carbonyl-3-[4-[2-(pyrrolidin-1-yl)ethoxy]phenylamino]-1H-1,2,4-triazole] |  | < 1000 nM | 
15 | CC(C)(C)OC(=O)Nc1ccc(C(=O)n2nc(Nc3ccc(OCCN4CCCC4)cc3)nc2N)cc1 [compound 270, 5-amino-1-(4-(tert-butoxycarbonylamino)phenyl)carbonyl-3-[4-[2-(pyrrolidin-1-yl)ethoxy]phenylamino]-1H-1,2,4-triazole] |  | < 1000 nM | 
16 | Nc1nc(Nc2ccc(OCCN3CCCC3)cc2)nn1C(=O)c1ccc2ncsc2c1 [compound 271, 5-amino-1-(benzo[d]thiazol-6-yl)carbonyl-3-[4-[2-(pyrrolidin-1-yl)ethoxy]phenylamino]-1H-1,2,4-triazole] |  |  | IC50 [3]: 1000 to 10000 nM
17 | CN(c1ccc(OCCN2CCCC2)cc1)c1nc(N)n(C(=O)c2ccc(OC(C)(C)C)cc2)n1 [compound 272, 5-amino-1-(4-(tert-butoxy)phenyl)carbonyl-3-[4-[2-(pyrrolidin-1-yl)ethoxy]phenyl][methyl]amino-1H-1,2,4-triazole] |  | > 20000 nM | 
18 | CC(C)(C)OC(=O)NC1CCOc2ccc(Nc3nc(N)n(C(=O)c4ccc(C(C)(C)C)cc4)n3)cc21 (stereo not drawn) [compound 273] | > 20000 nM |  | 
19 | CC(C)(C)OC(=O)NC1CCOc2ccc(Nc3nc(N)n(C(=O)c4ccc5cc[nH]c5c4)n3)cc21 (stereo not drawn) [compound 276] |  |  | IC50 (Table 9, Hela cells, Axl antibody cross-linking stimulation, phospho-Akt chemiluminescence): 1000 to 10000 nM
20 | CC(C)(C)OC(=O)NCc1ccc(C(=O)n2nc(Nc3ccc(OCCN4CCCC4)cc3)nc2N)cc1 [compound 278, 5-amino-1-[4-((tert-butoxycarbonyl)aminomethyl)phenyl]carbonyl-3-[4-[2-(pyrrolidin-1-yl)ethoxy]phenylamino]-1H-1,2,4-triazole] |  | < 1000 nM | 
21 | Nc1nc(Nc2ccc(OCCN3CCCC3)cc2)nn1C(=O)c1ccc2nn[nH]c2c1 [compound 281, 5-amino-1-(1H-benzo[d][1,2,3]triazol-5-yl)carbonyl-3-[4-[2-(pyrrolidin-1-yl)ethoxy]phenylamino]-1H-1,2,4-triazole] |  |  | IC50 [3]: 10000 to 20000 nM
22 | Cc1ccsc1C(=O)n1nc(Nc2ccc(OCCN3CCCC3)cc2)nc1N [compound 283, 5-amino-1-(3-methylthien-2-yl)carbonyl-3-[4-[2-(pyrrolidin-1-yl)ethoxy]phenylamino]-1H-1,2,4-triazole] |  |  | IC50 [3]: < 1000 nM
23 | Cc1ccc(C(=O)n2nc(Nc3ccc(OCCN4CCCC4)cc3)nc2N)s1 [compound 284, 5-amino-1-(5-methylthien-2-yl)carbonyl-3-[4-[2-(pyrrolidin-1-yl)ethoxy]phenylamino]-1H-1,2,4-triazole] |  |  | IC50 [3]: < 1000 nM

Continued, in another order:

Row | IC50 [1] | IC50 [4] | Structure (SMILES) | further results
24 | 1000 to 10000 nM |  | Cc1cccc(C(=O)n2nc(Nc3ccc4cn(C)nc4c3)nc2N)c1 [compound 253, 5-amino-3-(1H-2-methyl-indazol-6-yl)amino-1-(3-methylphenyl)carbonyl-1H-1,2,4-triazole] | 
25 | 1000 to 10000 nM |  | Cc1cccc(C(=O)n2nc(Nc3ccc4[nH]c(C)cc4c3)nc2N)c1 [compound 255, 5-amino-3-(1H-2-methyl-indol-5-yl)amino-1-(3-methylphenyl)carbonyl-1H-1,2,4-triazole] | 
26 | > 20000 nM |  | Cc1cccc(C(=O)n2nc(Nc3nc4ccccc4s3)nc2N)c1 [compound 256, 5-amino-3-(benzothiazol-2-yl)amino-1-(3-methylphenyl)carbonyl-1H-1,2,4-triazole] | 
27 | > 20000 nM |  | Cc1cccc(C(=O)n2nc(Nc3ccc4sncc4c3)nc2N)c1 [compound 259, 5-amino-3-(1,2-benzisothiazol-5-yl)amino-1-(3-methylphenyl)carbonyl-1H-1,2,4-triazole] | 
28 |  | < 1000 nM | CC(C)(C)c1ccc(C(=O)n2nc(Nc3ccc(OCCN4CCOCC4)cc3)nc2N)cc1 [compound 266, 5-amino-1-(4-(tert-butyl)phenyl)carbonyl-3-[4-[2-(morpholin-4-yl)ethoxy]phenylamino]-1H-1,2,4-triazole] | 
29 | > 20000 nM |  | CC(C)Oc1ccc(C(=O)n2nc(Nc3ccc4c(c3)C(NC(=O)OC(C)(C)C)CCO4)nc2N)cc1 (stereo not drawn) [compound 274] | 
30 | > 20000 nM |  | CC(C)(C)OC(=O)NC1CCOc2ccc(Nc3nc(N)n(C(=O)c4ccc(OC(C)(C)C)cc4)n3)cc21 (stereo not drawn) [compound 275] | 
31 |  | < 1000 nM | Nc1nc(Nc2ccc(OCCN3CCCC3)cc2)nn1C(=O)c1ccc(-c2ccccc2)cc1 [compound 277, 5-amino-1-(4-(phenyl)phenyl)carbonyl-3-[4-[2-(pyrrolidin-1-yl)ethoxy]phenylamino]-1H-1,2,4-triazole] | 
32 |  | < 1000 nM | Nc1nc(Nc2ccc(OCCN3CCCC3)cc2)nn1C(=O)c1ccc(-c2csnn2)cc1 [compound 280, 5-amino-1-(4-(1,2,3-thiadiazol-4-yl)phenyl)carbonyl-3-[4-[2-(pyrrolidin-1-yl)ethoxy]phenylamino]-1H-1,2,4-triazole] | 
33 |  | < 1000 nM | Nc1nc(Nc2ccc(OCCN3CCCC3)cc2)nn1C(=O)c1ccc(-n2cccc2)cc1 [compound 282, 5-amino-1-(4-(pyrrol-1-yl)phenyl)carbonyl-3-[4-[2-(pyrrolidin-1-yl)ethoxy]phenylamino]-1H-1,2,4-triazole] | 

Reference: patent US8389557B2, “Triazole derivatives useful as Axl inhibitors” (Rigel Pharmaceuticals, Inc., priority 2005, dated 2013)
